Data as given in patent publication US7135466B2 (Kirin Beer Kabushiki Kaisha, priority 1999, dated 2006).

The compounds below were run against T1, c-kit (Homo sapiens, UniProt P10721) (assay: Inhibitory activity against c-kit autophosphorylation (MO7e cells, h-SCF)). Conditions: MO7e cells, 50 ng/ml h-SCF; read-out: c-kit IC50.
T1 construct: MO7e (human megakaryocytic leukemia cell line) which had been arrested for 20 hr; endogenous in cells; host or cells: MO7e human megakaryocytic leukemia cell line
T1 sequence (P10721 26-976): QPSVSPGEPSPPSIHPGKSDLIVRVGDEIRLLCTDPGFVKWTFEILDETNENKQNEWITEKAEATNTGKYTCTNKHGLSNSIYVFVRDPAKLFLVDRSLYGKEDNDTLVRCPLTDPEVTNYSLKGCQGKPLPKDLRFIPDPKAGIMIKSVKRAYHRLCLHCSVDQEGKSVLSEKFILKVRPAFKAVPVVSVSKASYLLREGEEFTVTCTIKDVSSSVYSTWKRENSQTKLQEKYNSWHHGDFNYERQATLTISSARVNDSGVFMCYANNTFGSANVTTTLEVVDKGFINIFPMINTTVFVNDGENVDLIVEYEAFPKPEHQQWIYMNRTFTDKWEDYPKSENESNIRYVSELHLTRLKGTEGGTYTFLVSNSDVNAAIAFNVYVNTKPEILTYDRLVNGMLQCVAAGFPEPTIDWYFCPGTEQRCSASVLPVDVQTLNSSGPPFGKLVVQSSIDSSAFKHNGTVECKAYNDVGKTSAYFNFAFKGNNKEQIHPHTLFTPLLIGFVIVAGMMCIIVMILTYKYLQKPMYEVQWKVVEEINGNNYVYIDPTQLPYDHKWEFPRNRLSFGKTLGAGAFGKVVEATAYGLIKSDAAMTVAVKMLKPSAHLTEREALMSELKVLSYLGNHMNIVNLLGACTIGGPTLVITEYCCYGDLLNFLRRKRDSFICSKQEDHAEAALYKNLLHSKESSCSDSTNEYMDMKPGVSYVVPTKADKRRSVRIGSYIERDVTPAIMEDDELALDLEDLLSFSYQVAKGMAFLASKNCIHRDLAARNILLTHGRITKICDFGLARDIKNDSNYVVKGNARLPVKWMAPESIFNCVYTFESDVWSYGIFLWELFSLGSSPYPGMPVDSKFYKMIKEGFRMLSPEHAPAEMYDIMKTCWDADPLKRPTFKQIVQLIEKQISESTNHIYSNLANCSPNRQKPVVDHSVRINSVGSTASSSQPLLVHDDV
Format: cell-based
Description: Inhibitory Activity Against c-kit Autophosphorylation
MO7e (human megakaryocytic leukemia cell line) which had been arrested for 20 hr was seeded into 96 well plates at an amount of 2×10^5 per well. A solution of a test compound in DMSO was added, and a reaction was then allowed to proceed for one hr. Thereafter, the cells were stimulated by 50 ng/ml of h-SCF for 5 min, followed by replacement with lysate buffer to solubilize the cells.
Next, the solubilized cell sap was transferred to a 96-well plate with an anti-phosphotyrosine antibody (PY-20) previously immobilized thereon, and a reaction was allowed to proceed. Thereafter, the cells were reacted with an anti-c-kit antibody (c-19, Santa Cruz) as a primary antibody and were labelled with GAR (anti-rabbit IgG, horseradish peroxidase, Amersham) as a secondary antibody. Color development was then carried out in a peroxidase color development kit (Sumitomo Bakelite Co., Ltd.), and the absorbance was measured at a wavelength of 450 nm.
Work on COc1cc2nccc(Oc3ccc(OCC(=O)Nc4ccc(C)cc4)cc3)c2cc1OC [Example 786, N1-(4-Methylphenyl)-2-{4-[(6,7-dimethoxy-4-quinolyl)oxy]phenoxy}acetamide] yielded an IC50 of 46 nM.
COc1cc2nccc(Oc3ccc(OCCNc4cccc(C)c4)cc3)c2cc1OC [Example 785, N-(2-{4-[(6,7-Dimethoxy-4-quinolyl)oxy]phenoxy}ethyl)-N-(3-methylphenyl)amine] was tested, and the IC50 was 71 nM.

Same assay, conditions: MO7e cells, h-SCF 50 ng/ml; read-out: c-kit IC50
COc1cc2nccc(Oc3ccc(NC(=O)Oc4ccccc4)cc3)c2cc1OC [Example 216, Phenyl N-{4-[(6,7-dimethoxy-4-quinolyl)oxy]phenyl}carbamate] showed an IC50 of 19 nM.
For C=CCCCOC(=O)Nc1ccc(Oc2ccnc3cc(OC)c(OC)cc23)cc1 [Example 266, 4-Pentenyl N-{4-[(6,7-dimethoxy-4-quinolyl)oxy]phenyl}carbamate], the IC50 was 34 nM.
COc1cc2nccc(Oc3ccc(NC(=O)OCc4ccccc4Cl)cc3)c2cc1OC [Example 227, 2-Chlorobenzyl N-{4-[(6,7-dimethoxy-4-quinolyl)oxy]phenyl}carbamate] was tested, and the IC50 was 194 nM.

Same assay, conditions: MO7e cells, h-SCF stimulation; read-out: c-kit IC50
COc1cc2nccc(Oc3ccc(NC(=S)NC(=O)c4sccc4C)c(F)c3)c2cc1OC [Example 1038, N-{4-[(6,7-Dimethoxy-4-quinolyl)oxy]-2-fluorophenyl}-N′-[(3-methyl-2-thienyl)carbonyl]thiourea] gave an IC50 of 597 nM.
In the case of COc1cc2nccc(Oc3ccc(NC(=S)NC(=O)c4ccc(F)cc4)cc3)c2cc1OC [Example 961, N-{4-[(6,7-Dimethoxy-4-quinolyl)oxy]phenyl}-N′-(4-fluorobenzoyl)thiourea], the IC50 is reported as 740 nM.
In the case of COc1cc2nccc(Oc3ccc(NC(=S)NC(=O)c4ccccc4)cc3F)c2cc1OC [Example 911, N-Benzoyl-N′-{4-[(6,7-dimethoxy-4-quinolyl)oxy]-3-fluorophenyl}thiourea], the IC50 is reported as 498 nM.
Work on COc1cc2nccc(Oc3ccc(SCCOc4ccccc4Cl)cc3)c2cc1OC [Example 819, 4-(4-{[2-(2-Chlorophenoxy)ethyl]sulfanyl}phenoxy)-6,7-dimethoxyquinoline] yielded an IC50 of 212 nM.
COc1cc2nccc(Oc3ccc(SCCCOc4cccc(C)c4)cc3)c2cc1OC [Example 841, 6,7-Dimethoxy-4-(4-{[3-(3-methylphenoxy)propyl]sulfanyl}phenoxy)quinoline] was tested, and the IC50 was 118 nM.
COc1cc2nccc(Oc3ccc(NCCOc4cc(C)cc(C)c4)cc3)c2cc1OC [Example 858, N-{4-[(6,7-Dimethoxy-4-quinolyl)oxy]-phenyl}-N-[2-(3,5-dimethylphenoxy)ethyl]amine] was tested, and the IC50 was 102 nM.
For COc1ccc(C(=O)NC(=S)Nc2ccc(Oc3ccnc4cc(OC)c(OC)cc34)c(C)c2C)cc1 [Example 1087, N-{4-[(6,7-Dimethoxy-4-quinolyl)oxy]-2,3-dimethylphenyl}-N′-(4-methoxybenzoyl)thiourea], the IC50 was 495 nM.
Work on COc1cc2nccc(Oc3ccc(SCCOc4ccc(C)cc4C)cc3)c2cc1OC [Example 826, 4-(4-{[2-(2,4-Dimethylphenoxy)ethyl]sulfanyl}phenoxy)-6,7-dimethoxyquinoline] yielded an IC50 of 170 nM.
COc1cc2nccc(Oc3ccc(NC(=S)NC(=O)CCCCl)c(F)c3)c2cc1OC [Example 1066, N-(4-Chlorobutanoyl)-N′-{4-[(6,7-dimethoxy-4-quinolyl)oxy]-2-fluorophenyl}thiourea] was tested, and the IC50 was 279 nM.
With COc1cc2nccc(Oc3ccc(SCCOc4cccc(Cl)c4)cc3)c2cc1OC [Example 820, 4-(4-{[2-(3-Chlorophenoxy)ethyl]sufanyl}phenoxy)-6,7-dimethoxyquinoline] the IC50 was 187 nM.
COc1cc2nccc(Oc3ccc(NC(=S)NC(=O)CCc4ccccc4C)cc3F)c2cc1OC [Example 1134, N-{4-[(6,7-Dimethoxy-4-quinolyl)oxy]-3-fluorophenyl}-N′-[3-(2-methylphenyl)propanoyl]thiourea] gave an IC50 of 169 nM.
COc1cc2nccc(Oc3ccc(NC(=S)NC(=O)c4ccc([N+](=O)[O-])cc4)cc3C)c2cc1OC [Example 1108, N-{4-[(6,7-Dimethoxy-4-quinolyl)oxy]-3-methylphenyl}-N′-(4-nitrobenzoyl)thiourea] was tested, and the IC50 was 962 nM.
With COc1cc2nccc(Oc3ccc(NC(=S)NC(=O)c4ccc(Cl)cc4Cl)cc3)c2cc1OC [Example 1008, N-(2,4-Dichlorobenzoyl)-N′-{4-[(6,7-dimethoxy-4-quinolyl)oxy]phenyl}thiourea] the IC50 was 357 nM.
Work on COc1cc2nccc(Oc3ccc(NCCOc4ccccc4OC)cc3)c2cc1OC [Example 853, N-{4-[(6,7-Dimethoxy-4-quinolyl)oxy]phenyl}-N-[2-(2-methoxyphenoxy)ethyl]amine] yielded an IC50 of 102 nM.
COc1cc2nccc(Oc3ccc(NCCOc4c(F)cccc4F)cc3)c2cc1OC [Example 857, N-[2-(2,6-Difluorophenoxy)ethyl]-N-{4-[(6,7-dimethoxy-4-quinolyl)oxy]phenyl}amine] was tested, and the IC50 was 195 nM.
COc1cc2nccc(Oc3ccc(NC(=S)NC(=O)N(C)c4ccccc4)cc3Cl)c2cc1OC [Example 1053, N-{3-Chloro-4-[(6,7-dimethoxy-4-quinolyl)oxy]phenyl}-{[(methylanilino)carbonyl]amino}methanethioamide] gave an IC50 of 178 nM.
For COc1cc2nccc(Oc3ccc(NC(=S)NC(=O)c4ccc(C)cc4)cc3Cl)c2cc1OC [Example 977, N-{3-Chloro-4-[(6,7-dimethoxy-4-quinolyl)oxy]phenyl}-N′-(4-methylbenzoyl)thiourea], the IC50 was 824 nM.
COc1cc2ncnc(Oc3ccc(NC(=S)NC(=O)c4cccc(C(F)(F)F)c4)cc3)c2cc1OC [Example 957, N-{4-[(6,7-Dimethoxy-4-quinazolinyl)oxy]phenyl}-N′-[3-(trifluoromethyl)benzoyl]thiourea] was tested, and the IC50 was 136 nM.
COc1cccc(C(=O)NC(=S)Nc2ccc(Oc3ccnc4cc(OC)c(OC)cc34)cc2)c1 [Example 933, N-{4-[(6,7-Dimethoxy-4-quinolyl)oxy]phenyl}-N′-(3-methoxybenzoyl)thiourea] gave an IC50 of 493 nM.
Work on COc1cc2nccc(Oc3ccc(NC(=S)NC(=O)c4ccc(F)cc4)cc3F)c2cc1OC [Example 972, N-{4-[(6,7-Dimethoxy-4-quinolyl)oxy]-3-fluorophenyl}-N′-(4-fluorobenzoyl)thiourea] yielded an IC50 of 532 nM.
Work on COc1cc2nccc(Oc3ccc(NC(=S)NC(=O)c4cccc(Br)c4)cc3F)c2cc1OC [Example 946, N-(3-Bromobenzoyl)-N′-{4-[(6,7-dimethoxy-4-quinolyl)oxy]-3-fluorophenyl}thiourea] yielded an IC50 of 142 nM.
With COc1cc2nccc(Oc3ccc(NCCOc4ccc(Cl)cc4Cl)cc3)c2cc1OC [Example 851, N-[2-(2,4-Dichlorophenoxy)ethyl]-N-{4-[(6,7-dimethoxy-4-quinolyl)oxy]phenyl}amine] the IC50 was 75 nM.
COc1cc2nccc(Oc3ccc(NC(=S)NC(=O)CCSC)c(F)c3)c2cc1OC [Example 1067, N-{4-[(6,7-Dimethoxy-4-quinolyl)oxy]-2-fluorophenyl}-N′-[3-(methylsulfanyl)propanoyl]thiourea] showed an IC50 of 449 nM.
COc1cc2nccc(Oc3ccc(NC(=S)NC(=O)CCCCl)cc3F)c2cc1OC [Example 1068, N-(4-Chlorobutanoyl)-N′-{4-[(6,7-dimethoxy-4-quinolyl)oxy]-3-fluorophenyl}thiourea] was tested, and the IC50 was 124 nM.

Same assay, conditions: Mo7e, figure in parentheses in −( ); at 1000 nM
With COc1cc2nccc(Oc3ccc(NC(=S)NC(=O)c4ccc(Cl)cc4Cl)c(F)c3)c2cc1OC [Example 1011, N-(2,4-Dichlorobenzoyl)-N′-{4-[(6,7-dimethoxy-4-quinolyl)oxy]-2-fluorophenyl}thiourea] the inhibition at 1 µM was 20%.
With COc1cc2nccc(Oc3ccc(NC(=S)NC(=O)c4ccccc4F)c(F)c3)c2cc1OC [Example 906, N-{4-[(6,7-Dimethoxy-4-quinolyl)oxy]-2-fluorophenyl}-N′-(2-fluorobenzoyl)thiourea] the inhibition at 1 µM was 29%.
COc1cc2nccc(Oc3ccc(NC(=S)NC(=O)c4ccc(I)cc4)cc3F)c2cc1OC [Example 974, N-{4-[(6,7-Dimethoxy-4-quinolyl)oxy]-3-fluorophenyl}-N′-(4-iodobenzoyl)thiourea] gave an inhibition at 1 µM of 34%.
COc1cc2nccc(Oc3ccc(NC(=S)NC(=O)c4cccc(C)c4)c(C)c3)c2cc1OC [Example 1098, N-{4-[(6,7-Dimethoxy-4-quinolyl)oxy]-2-methylphenyl}-N′-(3-methylbenzoyl)thiourea] gave an inhibition at 1 µM of 41%.
With COc1cc2nccc(Oc3ccc(NC(=S)NC(=O)c4ccc(Cl)cc4)c(F)c3)c2cc1OC [Example 965, N-(4-Chlorobenzoyl)-N′-{4-[(6,7-dimethoxy-4-quinolyl)oxy]-2-fluorophenyl}thiourea] the inhibition at 1 µM was 24%.
COc1cc2nccc(Oc3ccc(NC(=S)NC(=O)c4cccc(C)c4)c(C)c3C)c2cc1OC [Example 1079, N-{4-[(6,7-Dimethoxy-4-quinolyl)oxy]-2,3-dimethylphenyl}-N′-(3-methylbenzoyl)thiourea] was tested, and the inhibition at 1 µM was 25%.
COc1cc2nccc(Oc3ccc(NC(=S)NC(=O)c4ccc([N+](=O)[O-])cc4)cc3)c2cc1OC [Example 962, N-{4-[(6,7-Dimethoxy-4-quinolyl)oxy]phenyl}-N′-(4-nitrobenzoyl)thiourea] was tested, and the inhibition at 1 µM was 35%.

Same assay, conditions: Mo7e, figure within parentheses in −( ) or >1000( ); at 1000 nM
In the case of COc1cc2ncnc(Oc3ccc(OCC(=O)N4CCCCC4)cc3)c2cc1OC [Example 806, 2-{4-[(6,7-Dimethoxy-4-quinazolinyl)oxy]phenoxy}-1-piperidino-1-ethanone], the inhibition at 1 µM is reported as 35%.
